Measured values from patent US8758816B2, “Compositions comprising azelastine and methods of use thereof” (priority 2004, dated 2014).

System: patients with seasonal allergic rhinitis (SAR)
Test: MP 428 two-week randomized double-blind study: Total Nasal Symptom Score (TNSS), change from baseline
Type: in vivo, human
Design: key to Change from Baseline in AM TNSS, Mean / Change from Baseline in AM TNSS, LS Mean / Change from Baseline in AM TNSS, Median: TNSS sum of 4 symptoms each 0-3 (0=none, 3=severe); change from baseline
Description: A two-week, randomized, double-blind study, which evaluated the effects of the co-administration of ASTELIN® (azelastine hydrochloride (HCl)) and FLONASE® (fluticasone propionate) compared to either product alone in patients with seasonal allergic rhinitis (SAR) was conducted during the 2006 Texas mountain cedar season. After a 5-day placebo lead-in period, 151 patients with moderate-to-severe allergic rhinitis symptoms were randomized to either: (1) (49 total patients) ASTELIN® (azelastine hydrochloride (HCl)) plus placebo saline nasal spray 2 sprays per nostril, 15 minutes apart, twice daily (AM & PM); (2) (50 total patients) FLONASE® (fluticasone propionate) plus placebo saline nasal spray, 2 sprays per nostril, 15 minutes apart, once daily (AM) and two sessions of placebo saline nasal spray, 2 sprays per nostril, 15 minutes apart (PM); or (3) (52 total patients) the co-administration of ASTELIN® (azelastine hydrochloride (HCl)) 2 sprays per nostril plus FLONASE® (fluticasone propionate) 2 sprays per nostril (AM), 15 minutes apart, and ASTELIN® (azelastine hydrochloride (HCl)) 2 sprays per nostril plus placebo saline nasal spray, 15 minutes apart, (PM) for a 2-week double-blind treatment period.
The primary efficacy variable was the change from baseline in the Total Nasal Symptom Score (TNSS), which comprised sneezing, itchy nose, runny nose, and nasal congestion (individual symptoms scores were assigned a value between 0 and 3, where 0=no symptoms and 3=severe symptoms). This study was not statistically designed to assess the differences between ASTELIN® and FLONASE®.

[1] = Day 2, Intent-to-Treat Population
[2] = Day 3, Intent-to-Treat Population
[3] = Day 4, Intent-to-Treat Population
[4] = Day 5, Intent-to-Treat Population

In the case of CCC(=O)O[C@]1(C(=O)SCF)[C@H](C)C[C@H]2[C@@H]3C[C@H](F)C4=CC(=O)C=C[C@]4(C)[C@@]3(F)[C@@H](O)C[C@@]21C [Fluticasone, fluticasone propionate], the “Primary Reason for Discontinuation From Study: Treatment Failure” value (All Randomized Patients) is reported as 1 (2.0) N (%), the “Change from Baseline in AM TNSS, LS Mean” value [1] is reported as −1.58 and the “Change from Baseline in AM TNSS, Mean” value [1] is reported as −1.65. The “Change from Baseline in AM TNSS, Median” value [1] was −1.00, the “Change from Baseline in AM and PM Combined TNSS, Mean” value [1] was −3.24 and the “Change from Baseline in AM and PM Combined TNSS, Median” value [1] was −2.00. The “Change from Baseline in PM TNSS, LS Mean” value [1] was −1.54, the “Change from Baseline in PM TNSS, Mean” value [1] was −1.59 and the “Change from Baseline in PM TNSS, Median” value [1] was −1.00. The “Percent Change from Baseline in AM TNSS, LS Mean” value [1] was −16.43%, the “Percent Change from Baseline in AM TNSS, Mean” value [1] was −17.21% and the “Percent Change from Baseline in AM TNSS, Median” value [1] was −11.11%. For the same molecule, the “Percent Change from Baseline in AM and PM Combined TNSS, LS Mean” value [1] was −16.35%, the “Percent Change from Baseline in AM and PM Combined TNSS, Mean” value [1] was −16.91% and the “Percent Change from Baseline in AM and PM Combined TNSS, Median” value [1] was −12.46%. For the same molecule, the “Percent Change from Baseline in PM TNSS, LS Mean” value [1] was −16.05%, the “Percent Change from Baseline in PM TNSS, Mean” value [1] was −16.52% and the “Percent Change from Baseline in PM TNSS, Median” value [1] was −11.11%. The “Change from Baseline in AM and PM Combined TNSS, LS Mean” value (Day 2, Intent-to-Treat Population, ANCOVA model) was −3.12, the “Change from Baseline in AM and PM Combined TNSS, LS Mean” value (Day 2, Per-Protocol Population) was −3.10 and the “Change from Baseline in AM and PM Combined TNSS, Mean” value (Day 2, Per-Protocol Population) was −3.27. The “Change from Baseline in AM and PM Combined TNSS, Median” value (Day 2, Per-Protocol Population) was −2.00, the “Percent Change from Baseline in AM and PM Combined TNSS, LS Mean” value (Day 2, Per-Protocol Population) was −16.38% and the “Percent Change from Baseline in AM and PM Combined TNSS, Mean” value (Day 2, Per-Protocol Population) was −17.11%. The “Percent Change from Baseline in AM and PM Combined TNSS, Median” value (Day 2, Per-Protocol Population) was −12.46%, the “Change from Baseline in AM TNSS, LS Mean” value [2] was −2.01 and the “Change from Baseline in AM TNSS, Mean” value [2] was −2.04. The “Change from Baseline in AM TNSS, Median” value [2] was −1.50, the “Change from Baseline in AM and PM Combined TNSS, Mean” value [2] was −4.12 and the “Change from Baseline in AM and PM Combined TNSS, Median” value [2] was −3.20. The “Change from Baseline in PM TNSS, LS Mean” value [2] was −2.08, the “Change from Baseline in PM TNSS, Mean” value [2] was −2.08 and the “Change from Baseline in PM TNSS, Median” value [2] was −1.80. For the same molecule, the “Percent Change from Baseline in AM TNSS, LS Mean” value [2] was −21.72%, the “Percent Change from Baseline in AM TNSS, Mean” value [2] was −22.09% and the “Percent Change from Baseline in AM TNSS, Median” value [2] was −14.29%. The “Percent Change from Baseline in AM and PM Combined TNSS, LS Mean” value [2] was −22.17%, the “Percent Change from Baseline in AM and PM Combined TNSS, Mean” value [2] was −22.26% and the “Percent Change from Baseline in AM and PM Combined TNSS, Median” value [2] was −16.67%. The “Percent Change from Baseline in PM TNSS, LS Mean” value [2] was −22.22%, the “Percent Change from Baseline in PM TNSS, Mean” value [2] was −22.28% and the “Percent Change from Baseline in PM TNSS, Median” value [2] was −20.00%. The “Change from Baseline in AM and PM Combined TNSS, LS Mean” value (Day 3, Intent-to-Treat Population, ANCOVA model) was −4.09, the “Change from Baseline in AM and PM Combined TNSS, LS Mean” value (Day 3, Per-Protocol Population) was −4.18 and the “Change from Baseline in AM and PM Combined TNSS, Mean” value (Day 3, Per-Protocol Population) was −4.25. The “Change from Baseline in AM and PM Combined TNSS, Median” value (Day 3, Per-Protocol Population) was −3.47, the “Percent Change from Baseline in AM and PM Combined TNSS, LS Mean” value (Day 3, Per-Protocol Population) was −22.68% and the “Percent Change from Baseline in AM and PM Combined TNSS, Mean” value (Day 3, Per-Protocol Population) was −22.87%. The “Percent Change from Baseline in AM and PM Combined TNSS, Median” value (Day 3, Per-Protocol Population) was −16.67%, the “Change from Baseline in AM TNSS, LS Mean” value [3] was −2.43 and the “Change from Baseline in AM TNSS, Mean” value [3] was −2.41. The “Change from Baseline in AM TNSS, Median” value [3] was −2.67, the “Change from Baseline in AM and PM Combined TNSS, Mean” value [3] was −4.53 and the “Change from Baseline in AM and PM Combined TNSS, Median” value [3] was −4.17. The “Change from Baseline in PM TNSS, LS Mean” value [3] was −2.10, the “Change from Baseline in PM TNSS, Mean” value [3] was −2.12 and the “Change from Baseline in PM TNSS, Median” value [3] was −1.80. The “Percent Change from Baseline in AM TNSS, LS Mean” value [3] was −25.32%, the “Percent Change from Baseline in AM TNSS, Mean” value [3] was −25.07% and the “Percent Change from Baseline in AM TNSS, Median” value [3] was −27.27%. For the same molecule, the “Percent Change from Baseline in AM and PM Combined TNSS, LS Mean” value [3] was −23.75%, the “Percent Change from Baseline in AM and PM Combined TNSS, Mean” value [3] was −23.67% and the “Percent Change from Baseline in AM and PM Combined TNSS, Median” value [3] was −23.60%. For the same molecule, the “Percent Change from Baseline in PM TNSS, LS Mean” value [3] was −21.91%, the “Percent Change from Baseline in PM TNSS, Mean” value [3] was −22.22% and the “Percent Change from Baseline in PM TNSS, Median” value [3] was −20.00%. The “Change from Baseline in AM and PM Combined TNSS, LS Mean” value (Day 4, Intent-to-Treat Population, ANCOVA model) was −4.53, the “Change from Baseline in AM and PM Combined TNSS, LS Mean” value (Day 4, Per-Protocol Population) was −4.61 and the “Change from Baseline in AM and PM Combined TNSS, Mean” value (Day 4, Per-Protocol Population) was −4.63. For the same molecule, the “Change from Baseline in AM and PM Combined TNSS, Median” value (Day 4, Per-Protocol Population) was −4.17, the “Percent Change from Baseline in AM and PM Combined TNSS, LS Mean” value (Day 4, Per-Protocol Population) was −24.10% and the “Percent Change from Baseline in AM and PM Combined TNSS, Mean” value (Day 4, Per-Protocol Population) was −24.08%. The “Percent Change from Baseline in AM and PM Combined TNSS, Median” value (Day 4, Per-Protocol Population) was −23.60%, the “Change from Baseline in AM TNSS, LS Mean” value [4] was −2.59 and the “Change from Baseline in AM TNSS, Mean” value [4] was −2.57. The “Change from Baseline in AM TNSS, Median” value [4] was −2.00, the “Change from Baseline in AM and PM Combined TNSS, Mean” value [4] was −5.16 and the “Change from Baseline in AM and PM Combined TNSS, Median” value [4] was −4.40. For the same molecule, the “Change from Baseline in PM TNSS, LS Mean” value [4] was −2.61, the “Change from Baseline in PM TNSS, Mean” value [4] was −2.59 and the “Change from Baseline in PM TNSS, Median” value [4] was −2.00. The “Percent Change from Baseline in AM TNSS, LS Mean” value [4] was −26.91%, the “Percent Change from Baseline in AM TNSS, Mean” value [4] was −26.62% and the “Percent Change from Baseline in AM TNSS, Median” value [4] was −19.23%. For the same molecule, the “Percent Change from Baseline in AM and PM Combined TNSS, LS Mean” value [4] was −27.20%.
